In assay [1] the test system is E. coli. Description: Blood culture time to positivity (flip time), bead rescue vs no-rescue control. The note with it: Piperacillin 96 ug/mL blood; for Flip time in Days: No bead rescue Control BC; for Time to positivity in days: 1800 cfu/5 ml. In kind it is cell-based.
Assay [2] relates to E. coli. Description: Confirm PCR multiplex (microbial DNA, GrNeg channel) after microbial capture. In kind it is cell-based. Further details: key: Ct values (qPCR cycle threshold).

Here are results for two molecules from patent US20240210394A1, “MICROORGANISM CAPTURE FROM ANTIMICROBIAL-CONTAINING SOLUTION” (MOMENTUM BIOSCIENCE LIMITED, priority 2019, published 2024).

Where “and” joins values, the source holds several entries; their conditions need not be identical. Equal entries are not always repeated.

Regarding `CCN1CCN(C(=O)N[C@@H](C(=O)N[C@@H]2C(=O)N3[C@@H]2SC(C)(C)[C@@H]3C(=O)O)c2ccccc2)C(=O)C1=O` [Piperacillin], the “Flip time in Days” value in assay [1] (50000 cfu/5 mL) and in assay [1] (150000 cfu/5 mL) was “Neg” in each case. The “Time to positivity in days” value in assay [1] (Control (no beads)) and in assay [1] (with magnetic beads in the bottle) was “Neg” throughout.
On to Sodium polyanethol sulfonate [SPS], for which the “Confirm GrNeg results” value in assay [2] (WB SPS 0.01 %, EC 1-3 replicates) is 27.94 and 29.18 and 28.32; in assay [2] (WB SPS 0.01 %, NSC 1-3 replicates) it was “NoCt”; in assay [2] (WB SPS 0.02 %, EC 1-3 replicates), 29.15 and 28.16 and 29.75; in assay [2] (WB SPS 0.02 %, NSC 1-3 replicates), “NoCt”; in assay [2] (WB SPS 0.04 %, EC 1-3 replicates) it was 28.71 and 28.75 and 29.82; in assay [2] (WB SPS 0.04 %, NSC 1-3 replicates), “NoCt”. Besides, the “Confirm GrNeg results” value in assay [2] (WB SPS 0.06 %, EC 1-3 replicates) was 31.58 and 29.77 and 29.26; in assay [2] (WB SPS 0.06 %, NSC 1-3 replicates), “NaCt and NoCt (2×)”; in assay [2] (WB SPS 0.08 %, EC 1-3 replicates), 29.20 and 29.80 and 28.87; in assay [2] (WB SPS 0.08 %, NSC 1-3 replicates), “NoCt”; in assay [2] (WB SPS 0.1 %, EC 1-3 replicates) it was 29.27 and 28.65 and 29.61; in assay [2] (WB SPS 0.1 %, NSC 1-3 replicates) it was 47.82 and NoCt (2×).
